Laboratory results: ChEMBL document CHEMBL1201862, “PubChem BioAssay data set” (2004)
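All cell lines were grown in 96-well plates and treated with compound for 48 hours. At the GI50, growth is halved.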 Activity calls are given as the source filed them. Rule as the data show it: active = GI50 up to about 1.1 µM and inactive = higher. Where a SMILES comes first, the peptide text is derived from it.

Assays:
Test in all cases: NCI anticancer screen, dose series, 48 h
[1] = test system: OVCAR-4
[2] = test system: SF-268
[3] = test system: M14
[4] = test system: TK-10
[5] = test system: KM12
[6] = test system: Malme-3M
[7] = test system: DMS-114
[8] = test system: SNB-19
[9] = test system: SR
[10] = test system: COLO 205
[11] = test system: SF-539
[12] = test system: SK-MEL-5
[13] = test system: NCI-H226
[14] = test system: HT-29
[15] = test system: HOP-62
[16] = test system: SK-OV-3
[17] = test system: MDA-MB-231
[18] = test system: DU-145
[19] = test system: BT-549
[20] = test system: T47D

Row | SMILES | GI50 [1] | GI50 [2] | GI50 [3] | GI50 [4] | GI50 [5] | GI50 [6] | GI50 [7] | GI50 [8] | GI50 [9] | GI50 [10] | GI50 [11] | GI50 [12] | GI50 [13] | GI50 [14] | GI50 [15] | GI50 [16] | GI50 [17] | GI50 [18] | GI50 [19] | GI50 [20]
1 | COC(=O)C(=O)C(C(=O)C(=O)Nc1cc(C)ccc1C)c1nc2ccc(C(=O)c3ccccc3)cc2nc1O (centres undefined) | > 100 µM (inactive) | > 100 µM (inactive) | > 100 µM (inactive) | > 100 µM (inactive) | 71.4 µM (inactive) | > 100 µM (inactive) | 51.4 µM (inactive) | > 100 µM (inactive) | 68.5 µM (inactive) | > 100 µM (inactive) | > 100 µM (inactive) | 62.1 µM (inactive) | 62.1 µM (inactive) |  |  |  |  |  |  | 
2 | CC(C)N1CCOC(c2ccc(O)c(O)c2)C1 (centres undefined) | > 100 µM (inactive) | > 100 µM (inactive) | > 100 µM (inactive) | > 100 µM (inactive) | > 100 µM (inactive) | > 100 µM (inactive) | > 100 µM (inactive) | > 100 µM (inactive) |  | > 100 µM (inactive) |  | > 100 µM (inactive) |  | > 100 µM (inactive) | > 100 µM (inactive) | > 100 µM (inactive) |  |  |  | 
3 | NC(=S)N/N=C1/C(=O)N(c2ccc(Cl)cc2Cl)C(=O)C(=O)C1c1nc2ccccc2s1 (centres undefined) | > 100 µM (inactive) | > 100 µM (inactive) | > 100 µM (inactive) | > 100 µM (inactive) | > 100 µM (inactive) | > 100 µM (inactive) | > 100 µM (inactive) | > 100 µM (inactive) |  | > 100 µM (inactive) | > 100 µM (inactive) | > 100 µM (inactive) | > 100 µM (inactive) | > 100 µM (inactive) | > 100 µM (inactive) | > 100 µM (inactive) |  |  |  | 
4 | O=C1NC(=O)C2C1c1[nH]c3ccccc3c1C1CCCC12 (centres undefined) | 25.6 µM (inactive) | 4.02 µM (inactive) | 1.73 µM (inactive) | 8.75 µM (inactive) | 2.17 µM (inactive) | 2.52 µM (inactive) | 1.35 µM (inactive) | 5.07 µM (inactive) | 2.81 µM (inactive) | 4.23 µM (inactive) | 3.03 µM (inactive) | 0.893 µM (active) | 3.61 µM (inactive) | 2.07 µM (inactive) |  | 4.49 µM (inactive) |  |  |  | 
5 | COc1ccc(NC(=O)CC/C(CC(=O)C(C)(C)C)=N\NC(=O)C(=O)NN)cc1 | > 100 µM (inactive) | > 100 µM (inactive) | > 100 µM (inactive) | > 100 µM (inactive) | > 100 µM (inactive) | > 100 µM (inactive) | > 100 µM (inactive) | > 100 µM (inactive) | > 100 µM (inactive) | > 100 µM (inactive) | > 100 µM (inactive) | > 100 µM (inactive) | > 100 µM (inactive) | > 100 µM (inactive) | > 100 µM (inactive) | > 100 µM (inactive) |  |  |  | 
6 | Cc1ccc(NC(=O)C(=O)C2C(=O)NC(=O)NC2=O)c(C)c1 | > 100 µM (inactive) | > 100 µM (inactive) | > 100 µM (inactive) | > 100 µM (inactive) | > 100 µM (inactive) | > 100 µM (inactive) | > 100 µM (inactive) | > 100 µM (inactive) | > 100 µM (inactive) | 13.8 µM (inactive) | > 100 µM (inactive) | > 100 µM (inactive) | 17.5 µM (inactive) | > 100 µM (inactive) | > 100 µM (inactive) | > 100 µM (inactive) |  |  |  | 
7 | CN(C(=O)C12C3C4C1C1C2C3C41I)C(C)(C)C (centres undefined) | > 100 µM (inactive) | > 100 µM (inactive) | > 100 µM (inactive) | > 57.4 µM (inactive) | > 100 µM (inactive) | > 95.9 µM (inactive) | > 59 µM (inactive) | > 100 µM (inactive) | > 29.4 µM (inactive) | > 87.1 µM (inactive) | > 100 µM (inactive) | > 63.1 µM (inactive) | > 51.5 µM (inactive) | > 95.1 µM (inactive) | > 100 µM (inactive) | > 100 µM (inactive) |  |  |  | 
8 | Cc1nc(N)sc1C(=O)/C=C/c1ccc([N+](=O)[O-])cc1 |  | > 100 µM (inactive) |  | > 100 µM (inactive) | > 100 µM (inactive) | > 100 µM (inactive) | > 100 µM (inactive) | > 100 µM (inactive) |  | > 100 µM (inactive) | > 100 µM (inactive) | > 100 µM (inactive) |  | > 100 µM (inactive) | > 100 µM (inactive) | > 100 µM (inactive) |  |  |  | 
9 | O=c1[nH]cnc2c(COCCO)c[nH]c12 | > 100 µM (inactive) | > 100 µM (inactive) | > 100 µM (inactive) | > 100 µM (inactive) | > 100 µM (inactive) | > 100 µM (inactive) | > 100 µM (inactive) | > 100 µM (inactive) | > 100 µM (inactive) | > 100 µM (inactive) | > 100 µM (inactive) | > 100 µM (inactive) | > 100 µM (inactive) | > 100 µM (inactive) | > 100 µM (inactive) | > 100 µM (inactive) |  |  |  | 
10 | CCOC(=O)C1(C(=O)OCC)C(C(C)(C)C)=C(C)c2ccccc21 | 14.9 µM (inactive) | 16.8 µM (inactive) | 16.1 µM (inactive) | 30.1 µM (inactive) | 12.6 µM (inactive) | 11.4 µM (inactive) | 11.5 µM (inactive) | 19.9 µM (inactive) | 39.1 µM (inactive) | 13.3 µM (inactive) | 18.2 µM (inactive) | 9.59 µM (inactive) | 14.5 µM (inactive) | 10.9 µM (inactive) | 20.3 µM (inactive) | 24.2 µM (inactive) |  |  |  | 
11 | C=C1CC(CC(=O)C(C)CC2CC(=C)C(=O)O2)OC1=O (centres undefined) | 16.4 µM (inactive) | 22.4 µM (inactive) | 15.8 µM (inactive) | 19.1 µM (inactive) | 10.5 µM (inactive) | 14.5 µM (inactive) | 21.6 µM (inactive) | > 100 µM (inactive) | 3.3 µM (inactive) | 13.6 µM (inactive) | 18.8 µM (inactive) | 33.3 µM (inactive) |  | 26.2 µM (inactive) | > 100 µM (inactive) | > 100 µM (inactive) |  |  |  | 
12 | NC(=S)N/N=C/C(=C/Nc1ccccc1)[N+](=O)[O-] | > 100 µM (inactive) | > 100 µM (inactive) | > 100 µM (inactive) | > 100 µM (inactive) |  | > 100 µM (inactive) | 15.7 µM (inactive) | > 100 µM (inactive) |  | > 100 µM (inactive) | > 100 µM (inactive) |  | 53 µM (inactive) | > 100 µM (inactive) | > 100 µM (inactive) | > 100 µM (inactive) |  |  |  | 
13 | CC(C)NCCCC(C)Nc1ccnc2ccc3nn(C)nc3c12 (centres undefined) |  | 96.8 µM (inactive) | 38.8 µM (inactive) | > 100 µM (inactive) | 50.8 µM (inactive) | 63 µM (inactive) | 61.7 µM (inactive) | > 100 µM (inactive) | 40.1 µM (inactive) | 28.3 µM (inactive) | 83.2 µM (inactive) | 38.5 µM (inactive) | 31.8 µM (inactive) | 37.8 µM (inactive) | 52.7 µM (inactive) | > 100 µM (inactive) |  |  |  | 
14 | O=C(/C=C/c1ccc(Cl)cc1)c1ccc(Cl)c(Cl)c1 | 26.4 µM (inactive) | 20.7 µM (inactive) | 28 µM (inactive) | > 10 µM (inactive) | 9.31 µM (inactive) | 25.1 µM (inactive) | 23.6 µM (inactive) | 23.7 µM (inactive) |  | > 10 µM (inactive) | 20 µM (inactive) | 18.1 µM (inactive) | 14 µM (inactive) | 48 µM (inactive) | 22 µM (inactive) | 26.4 µM (inactive) |  |  |  | 
15 | c1cncc(C2c3[nH]c4ccccc4c3CCN2CCCN2CCCCC2)c1 (centres undefined) | > 100 µM (inactive) |  | 18.6 µM (inactive) | > 100 µM (inactive) | > 100 µM (inactive) | 29.7 µM (inactive) | > 100 µM (inactive) | > 100 µM (inactive) | > 100 µM (inactive) | 84.3 µM (inactive) | > 100 µM (inactive) | 37.2 µM (inactive) | > 100 µM (inactive) | > 100 µM (inactive) | > 100 µM (inactive) | > 100 µM (inactive) |  |  |  | 
16 | CCCCCCCC(=O)OCC1OC(n2cc(F)c(=O)[nH]c2=O)C(NC(=O)OCc2ccccc2)C(O)C1O (centres undefined) | > 100 µM (inactive) | 46.9 µM (inactive) | > 100 µM (inactive) | > 100 µM (inactive) | 32.4 µM (inactive) | > 100 µM (inactive) | 41.6 µM (inactive) | 53.3 µM (inactive) | 31.8 µM (inactive) | 37.8 µM (inactive) | 83.4 µM (inactive) | 1.55 µM (inactive) |  | > 100 µM (inactive) | > 100 µM (inactive) | > 100 µM (inactive) |  |  |  | 
17 | O=C1c2ccccc2C(=O)c2[nH]c(Cc3ccc(F)cc3)nc21 | 14.8 µM (inactive) | 21.8 µM (inactive) | 15.3 µM (inactive) | 34.1 µM (inactive) | 16.2 µM (inactive) | 14.5 µM (inactive) | > 10 µM (inactive) | 24.4 µM (inactive) | 21.6 µM (inactive) | 22.1 µM (inactive) | 17.8 µM (inactive) |  | 22.8 µM (inactive) | 15.9 µM (inactive) | 21.9 µM (inactive) |  |  |  |  | 
18 | CC(C)CC(NC(=O)C(Cc1ccccc1)NC(=O)C(Cc1c[nH]c2ccccc12)NC(=O)CNC(=O)C(N)Cc1ccc(O)cc1)C(=O)O (centres undefined) (H-YGWFL-OH; configuration not given here) | 30.2 µM (inactive) | 47.3 µM (inactive) | 47.6 µM (inactive) | 78.7 µM (inactive) | 24.6 µM (inactive) | 21.2 µM (inactive) |  | 51.6 µM (inactive) | 32.4 µM (inactive) | 16.4 µM (inactive) | 33.8 µM (inactive) | 29 µM (inactive) | 46.8 µM (inactive) | 30.8 µM (inactive) | 46.5 µM (inactive) | > 100 µM (inactive) | 52.1 µM (inactive) | 31.8 µM (inactive) | > 100 µM (inactive) | 25.6 µM (inactive)
